Calls of active or inactive are those of the source. Rule as the data show it, for most assays here: actives have a measured Kd and inactives only a lower limit.
Columns and labels:
[1] = target: Calcium/calmodulin-dependent protein kinase type II subunit gamma (Homo sapiens, UniProt Q13555)
[2] = target: T1, Bifunctional phosphoribosylaminoimidazole carboxylase/phosphoribosylaminoimidazole succinocarboxamide synthetase (Homo sapiens, UniProt P22234)
T1 sequence (P22234 whole entry): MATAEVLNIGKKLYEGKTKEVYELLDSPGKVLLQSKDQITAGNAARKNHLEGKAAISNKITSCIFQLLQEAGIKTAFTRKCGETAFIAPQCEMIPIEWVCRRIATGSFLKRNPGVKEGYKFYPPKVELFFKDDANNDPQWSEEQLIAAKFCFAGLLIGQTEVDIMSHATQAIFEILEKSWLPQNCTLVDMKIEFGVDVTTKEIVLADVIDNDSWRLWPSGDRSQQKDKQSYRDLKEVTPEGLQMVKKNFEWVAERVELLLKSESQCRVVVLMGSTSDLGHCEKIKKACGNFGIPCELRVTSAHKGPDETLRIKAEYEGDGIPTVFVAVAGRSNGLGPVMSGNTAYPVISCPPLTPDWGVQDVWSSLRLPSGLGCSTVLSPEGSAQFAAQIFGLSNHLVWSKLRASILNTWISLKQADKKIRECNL

[3] = target: Atypical kinase COQ8A, mitochondrial (Homo sapiens, UniProt Q8NI60)
[4] = target: T2, Uncharacterized protein FLJ45252 (Homo sapiens, UniProt Q6ZSR9); conditions: read-out: Kd apparent; k-562, colo 205, sk-n-be(2) and mv-4-11
T2 sequence (Q6ZSR9 whole entry): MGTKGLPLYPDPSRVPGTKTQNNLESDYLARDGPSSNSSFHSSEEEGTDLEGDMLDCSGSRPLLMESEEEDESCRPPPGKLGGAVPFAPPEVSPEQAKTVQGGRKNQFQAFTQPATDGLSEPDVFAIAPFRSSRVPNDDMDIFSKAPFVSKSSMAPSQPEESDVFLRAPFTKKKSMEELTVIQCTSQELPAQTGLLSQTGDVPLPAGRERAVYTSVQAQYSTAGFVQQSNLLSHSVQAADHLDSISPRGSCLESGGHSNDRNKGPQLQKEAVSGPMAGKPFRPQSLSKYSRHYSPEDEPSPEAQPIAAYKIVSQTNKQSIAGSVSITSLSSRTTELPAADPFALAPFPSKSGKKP

[5] = target: Adenylate kinase 2, mitochondrial (Homo sapiens, UniProt P54819)
[6] = target: T3, Delta(24)-sterol reductase (Homo sapiens, UniProt Q15392)
T3 sequence (Q15392 whole entry): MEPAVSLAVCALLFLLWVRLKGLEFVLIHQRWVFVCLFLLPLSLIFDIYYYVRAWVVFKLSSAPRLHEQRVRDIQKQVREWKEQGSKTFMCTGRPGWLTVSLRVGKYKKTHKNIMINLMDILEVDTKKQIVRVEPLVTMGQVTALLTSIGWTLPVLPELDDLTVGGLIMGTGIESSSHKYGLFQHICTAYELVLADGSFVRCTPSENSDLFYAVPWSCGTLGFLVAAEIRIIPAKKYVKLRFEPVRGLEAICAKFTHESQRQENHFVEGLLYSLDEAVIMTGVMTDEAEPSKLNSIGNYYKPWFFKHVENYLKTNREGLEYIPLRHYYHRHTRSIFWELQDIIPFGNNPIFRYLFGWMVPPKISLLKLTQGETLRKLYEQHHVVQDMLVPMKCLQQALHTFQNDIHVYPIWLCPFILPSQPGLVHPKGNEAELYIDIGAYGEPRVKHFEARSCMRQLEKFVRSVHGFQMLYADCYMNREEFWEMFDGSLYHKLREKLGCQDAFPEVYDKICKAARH

[7] = target: Mitogen-activated protein kinase 10 (Homo sapiens, UniProt P53779)
[8] = target: Serine/threonine-protein kinase pim-1 (Homo sapiens, UniProt P11309)
[9] = target: MAP kinase-activated protein kinase 2 (Homo sapiens, UniProt P49137)
[10] = target: Cyclin-dependent kinase 5 (Homo sapiens, UniProt Q00535)
[11] = target: Structural maintenance of chromosomes protein 2 (Homo sapiens, UniProt O95347)
[12] = target: T4, Mitogen-activated protein kinase kinase kinase kinase 3 (Homo sapiens, UniProt Q8IVH8)
T4 sequence (Q8IVH8 whole entry): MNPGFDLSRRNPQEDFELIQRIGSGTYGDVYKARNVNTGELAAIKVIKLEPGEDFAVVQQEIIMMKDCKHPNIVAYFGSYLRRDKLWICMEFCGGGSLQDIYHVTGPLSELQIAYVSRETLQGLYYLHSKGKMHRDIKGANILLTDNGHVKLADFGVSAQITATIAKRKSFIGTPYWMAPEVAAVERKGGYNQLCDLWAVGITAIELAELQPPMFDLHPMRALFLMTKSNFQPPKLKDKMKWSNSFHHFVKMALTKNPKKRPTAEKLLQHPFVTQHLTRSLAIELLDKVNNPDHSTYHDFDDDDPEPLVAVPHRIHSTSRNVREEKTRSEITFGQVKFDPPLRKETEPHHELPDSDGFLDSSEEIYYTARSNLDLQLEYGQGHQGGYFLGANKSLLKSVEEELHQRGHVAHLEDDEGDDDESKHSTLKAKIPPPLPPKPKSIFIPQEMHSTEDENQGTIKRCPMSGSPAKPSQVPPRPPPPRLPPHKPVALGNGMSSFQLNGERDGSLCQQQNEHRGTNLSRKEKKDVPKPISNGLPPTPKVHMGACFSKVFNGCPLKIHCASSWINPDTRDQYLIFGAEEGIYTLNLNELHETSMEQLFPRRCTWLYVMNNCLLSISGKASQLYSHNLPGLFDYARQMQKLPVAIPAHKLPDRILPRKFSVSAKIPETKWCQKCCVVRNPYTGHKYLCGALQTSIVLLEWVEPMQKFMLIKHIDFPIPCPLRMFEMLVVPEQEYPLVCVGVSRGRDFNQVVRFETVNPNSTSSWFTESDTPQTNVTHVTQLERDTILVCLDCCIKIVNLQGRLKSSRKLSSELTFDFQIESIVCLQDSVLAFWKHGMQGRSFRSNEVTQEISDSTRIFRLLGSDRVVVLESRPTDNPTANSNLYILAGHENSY

[13] = target: Epithelial discoidin domain-containing receptor 1 (Homo sapiens, UniProt Q08345)
[14] = target: Tyrosine-protein kinase FRK (Homo sapiens, UniProt P42685)
[15] = target: Mitogen-activated protein kinase kinase kinase kinase 5 (Homo sapiens, UniProt Q9Y4K4)
Also: in the data inactive means no Kd found up to 30 µM.

Sequence of Mitogen-activated protein kinase kinase kinase kinase 5 (Q9Y4K4 whole entry): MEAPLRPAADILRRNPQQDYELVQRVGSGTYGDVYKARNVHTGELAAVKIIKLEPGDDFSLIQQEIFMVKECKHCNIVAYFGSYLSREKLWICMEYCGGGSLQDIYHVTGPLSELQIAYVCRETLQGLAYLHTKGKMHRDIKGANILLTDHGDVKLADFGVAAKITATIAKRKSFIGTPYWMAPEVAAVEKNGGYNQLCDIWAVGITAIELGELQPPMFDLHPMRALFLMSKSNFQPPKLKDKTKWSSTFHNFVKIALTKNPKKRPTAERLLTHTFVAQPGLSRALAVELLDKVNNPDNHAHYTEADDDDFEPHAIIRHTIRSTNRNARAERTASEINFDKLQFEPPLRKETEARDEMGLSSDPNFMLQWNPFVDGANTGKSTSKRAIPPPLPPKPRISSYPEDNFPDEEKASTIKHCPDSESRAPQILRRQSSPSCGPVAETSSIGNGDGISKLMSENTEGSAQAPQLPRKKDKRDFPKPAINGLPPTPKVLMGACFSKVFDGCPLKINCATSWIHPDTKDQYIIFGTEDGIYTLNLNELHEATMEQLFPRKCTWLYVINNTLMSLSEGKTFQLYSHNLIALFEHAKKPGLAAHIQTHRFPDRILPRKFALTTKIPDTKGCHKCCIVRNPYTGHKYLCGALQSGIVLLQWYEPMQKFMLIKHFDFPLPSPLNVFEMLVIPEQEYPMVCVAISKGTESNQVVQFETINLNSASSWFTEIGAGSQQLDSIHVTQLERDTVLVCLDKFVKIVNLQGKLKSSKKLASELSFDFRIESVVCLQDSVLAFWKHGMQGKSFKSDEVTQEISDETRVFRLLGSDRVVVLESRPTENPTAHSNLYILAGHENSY
Sequence of Atypical kinase COQ8A, mitochondrial (Q8NI60 whole entry): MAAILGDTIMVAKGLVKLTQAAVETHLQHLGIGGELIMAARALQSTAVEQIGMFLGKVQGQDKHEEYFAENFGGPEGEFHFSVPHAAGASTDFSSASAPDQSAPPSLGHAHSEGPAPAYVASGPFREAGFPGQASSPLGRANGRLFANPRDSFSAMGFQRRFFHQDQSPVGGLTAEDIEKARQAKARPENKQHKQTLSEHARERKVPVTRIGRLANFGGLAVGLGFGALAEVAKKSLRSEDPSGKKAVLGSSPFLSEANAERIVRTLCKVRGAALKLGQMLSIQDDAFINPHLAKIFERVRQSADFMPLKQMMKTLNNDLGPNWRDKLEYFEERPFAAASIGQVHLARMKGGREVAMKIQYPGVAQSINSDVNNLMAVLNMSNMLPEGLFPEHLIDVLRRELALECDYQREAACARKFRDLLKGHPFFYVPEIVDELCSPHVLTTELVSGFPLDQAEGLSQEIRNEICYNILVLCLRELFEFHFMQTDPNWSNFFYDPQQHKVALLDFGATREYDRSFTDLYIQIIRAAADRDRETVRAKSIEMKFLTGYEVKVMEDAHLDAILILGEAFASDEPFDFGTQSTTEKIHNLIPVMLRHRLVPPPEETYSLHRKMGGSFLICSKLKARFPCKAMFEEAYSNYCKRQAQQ
Sequence of Epithelial discoidin domain-containing receptor 1 (Q08345 whole entry, the tested form may be a part): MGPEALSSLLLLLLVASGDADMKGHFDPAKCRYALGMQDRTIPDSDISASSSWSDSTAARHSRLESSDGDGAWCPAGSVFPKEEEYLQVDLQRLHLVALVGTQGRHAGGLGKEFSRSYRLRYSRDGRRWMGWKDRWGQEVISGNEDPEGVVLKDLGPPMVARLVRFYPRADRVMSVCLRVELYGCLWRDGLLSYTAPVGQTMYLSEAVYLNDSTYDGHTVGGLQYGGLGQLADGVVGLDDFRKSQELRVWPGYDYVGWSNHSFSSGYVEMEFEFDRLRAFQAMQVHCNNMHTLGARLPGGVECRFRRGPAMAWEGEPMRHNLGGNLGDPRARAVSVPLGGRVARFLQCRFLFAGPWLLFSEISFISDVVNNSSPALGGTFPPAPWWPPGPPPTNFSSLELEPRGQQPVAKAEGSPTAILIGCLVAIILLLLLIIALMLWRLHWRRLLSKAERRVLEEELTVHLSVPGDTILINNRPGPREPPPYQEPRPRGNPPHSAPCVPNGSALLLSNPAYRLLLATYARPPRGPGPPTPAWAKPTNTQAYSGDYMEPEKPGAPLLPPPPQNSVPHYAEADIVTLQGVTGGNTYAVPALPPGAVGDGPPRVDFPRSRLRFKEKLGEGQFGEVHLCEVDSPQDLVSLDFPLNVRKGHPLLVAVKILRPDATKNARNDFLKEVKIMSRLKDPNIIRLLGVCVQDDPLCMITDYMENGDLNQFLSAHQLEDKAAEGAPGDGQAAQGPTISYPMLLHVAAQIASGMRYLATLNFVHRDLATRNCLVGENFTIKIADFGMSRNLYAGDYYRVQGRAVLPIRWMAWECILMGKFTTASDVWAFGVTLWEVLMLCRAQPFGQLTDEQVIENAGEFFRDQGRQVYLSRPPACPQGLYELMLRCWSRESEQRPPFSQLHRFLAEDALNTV
Sequence of Calcium/calmodulin-dependent protein kinase type II subunit gamma (Q13555 whole entry): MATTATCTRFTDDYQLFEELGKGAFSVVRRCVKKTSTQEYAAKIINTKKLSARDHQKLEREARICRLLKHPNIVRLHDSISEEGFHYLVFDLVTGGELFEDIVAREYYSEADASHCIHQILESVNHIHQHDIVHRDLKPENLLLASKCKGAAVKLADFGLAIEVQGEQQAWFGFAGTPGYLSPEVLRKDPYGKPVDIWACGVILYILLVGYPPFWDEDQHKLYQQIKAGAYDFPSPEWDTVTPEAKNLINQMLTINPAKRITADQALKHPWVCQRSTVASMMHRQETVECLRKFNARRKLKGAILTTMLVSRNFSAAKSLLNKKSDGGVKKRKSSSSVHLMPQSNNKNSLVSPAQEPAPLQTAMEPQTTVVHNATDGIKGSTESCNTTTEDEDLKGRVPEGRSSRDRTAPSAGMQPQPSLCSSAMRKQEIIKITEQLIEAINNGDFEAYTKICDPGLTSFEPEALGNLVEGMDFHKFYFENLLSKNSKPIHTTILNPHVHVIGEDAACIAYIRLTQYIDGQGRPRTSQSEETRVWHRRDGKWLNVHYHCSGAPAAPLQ
Sequence of Structural maintenance of chromosomes protein 2 (O95347 whole entry): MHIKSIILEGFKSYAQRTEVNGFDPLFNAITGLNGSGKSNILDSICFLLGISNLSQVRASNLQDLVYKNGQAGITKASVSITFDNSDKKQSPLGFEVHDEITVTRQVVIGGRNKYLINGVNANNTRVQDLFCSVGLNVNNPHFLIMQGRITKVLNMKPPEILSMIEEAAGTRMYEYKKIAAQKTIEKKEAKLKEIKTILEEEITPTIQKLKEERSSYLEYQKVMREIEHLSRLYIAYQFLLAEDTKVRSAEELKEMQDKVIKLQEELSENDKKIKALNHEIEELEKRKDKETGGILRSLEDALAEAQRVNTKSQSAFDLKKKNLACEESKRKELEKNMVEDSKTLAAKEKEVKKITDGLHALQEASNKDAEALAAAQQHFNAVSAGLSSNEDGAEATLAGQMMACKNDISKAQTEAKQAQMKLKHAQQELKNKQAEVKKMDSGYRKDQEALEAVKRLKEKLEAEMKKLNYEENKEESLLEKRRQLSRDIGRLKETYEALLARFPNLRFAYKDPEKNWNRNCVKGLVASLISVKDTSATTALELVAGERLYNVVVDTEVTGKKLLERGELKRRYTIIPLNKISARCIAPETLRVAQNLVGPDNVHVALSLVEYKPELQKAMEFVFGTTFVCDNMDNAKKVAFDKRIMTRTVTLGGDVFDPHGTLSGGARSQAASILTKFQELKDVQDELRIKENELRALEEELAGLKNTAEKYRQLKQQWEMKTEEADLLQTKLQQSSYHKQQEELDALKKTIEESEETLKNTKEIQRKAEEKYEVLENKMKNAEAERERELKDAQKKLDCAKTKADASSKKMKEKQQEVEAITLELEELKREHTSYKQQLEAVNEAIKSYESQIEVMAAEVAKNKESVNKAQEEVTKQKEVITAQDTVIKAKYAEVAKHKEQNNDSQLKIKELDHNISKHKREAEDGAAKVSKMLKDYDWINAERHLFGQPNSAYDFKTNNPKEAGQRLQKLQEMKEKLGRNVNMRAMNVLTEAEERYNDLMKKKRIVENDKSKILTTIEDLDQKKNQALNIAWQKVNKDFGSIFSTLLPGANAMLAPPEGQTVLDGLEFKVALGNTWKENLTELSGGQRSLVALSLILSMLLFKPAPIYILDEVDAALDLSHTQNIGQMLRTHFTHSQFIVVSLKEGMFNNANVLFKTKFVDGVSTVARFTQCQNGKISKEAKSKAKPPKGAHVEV
Sequence of Tyrosine-protein kinase FRK (P42685 whole entry): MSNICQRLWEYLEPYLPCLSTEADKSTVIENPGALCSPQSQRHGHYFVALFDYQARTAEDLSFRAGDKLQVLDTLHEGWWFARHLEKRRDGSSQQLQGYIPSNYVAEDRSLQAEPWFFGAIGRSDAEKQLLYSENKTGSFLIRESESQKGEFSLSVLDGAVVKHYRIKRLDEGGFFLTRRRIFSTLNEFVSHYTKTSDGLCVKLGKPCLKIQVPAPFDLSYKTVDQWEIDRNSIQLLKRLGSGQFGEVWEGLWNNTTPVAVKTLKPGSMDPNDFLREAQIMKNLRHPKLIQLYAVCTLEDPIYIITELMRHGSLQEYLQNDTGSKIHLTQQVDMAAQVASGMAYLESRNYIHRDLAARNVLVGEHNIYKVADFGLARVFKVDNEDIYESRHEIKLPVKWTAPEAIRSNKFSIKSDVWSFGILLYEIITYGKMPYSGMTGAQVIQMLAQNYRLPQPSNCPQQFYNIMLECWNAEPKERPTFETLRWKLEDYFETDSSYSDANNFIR
Sequence of MAP kinase-activated protein kinase 2 (P49137 whole entry): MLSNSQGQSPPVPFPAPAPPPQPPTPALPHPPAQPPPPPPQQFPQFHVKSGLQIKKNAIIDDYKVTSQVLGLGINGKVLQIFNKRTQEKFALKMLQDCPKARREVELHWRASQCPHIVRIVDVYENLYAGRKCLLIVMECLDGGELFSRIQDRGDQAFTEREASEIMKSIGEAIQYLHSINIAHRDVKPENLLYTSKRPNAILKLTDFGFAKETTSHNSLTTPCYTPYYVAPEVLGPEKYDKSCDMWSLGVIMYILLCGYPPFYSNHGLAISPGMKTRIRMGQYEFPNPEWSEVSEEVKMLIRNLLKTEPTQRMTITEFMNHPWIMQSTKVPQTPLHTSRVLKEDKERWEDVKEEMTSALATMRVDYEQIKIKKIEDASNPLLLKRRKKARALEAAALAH

Structure (SMILES) | Kd [1] | Kd [2] | Kd [3] | Kd [4] | Kd [5] | Kd [6] | Kd [7] | Kd [8] | Kd [9] | Kd [10] | Kd [11] | Kd [12] | Kd [13] | Kd [14] | Kd [15]
COc1cc2nccc(Oc3ccc(NC(=O)Nc4cc(C)on4)c(Cl)c3)c2cc1OC [TIVOZANIB] | > 30 µM (inactive) | > 30 µM (inactive) | > 30 µM (inactive) | > 30 µM (inactive) | > 30 µM (inactive) | > 30 µM (inactive) | > 30 µM (inactive) | > 30 µM (inactive) | > 30 µM (inactive) | > 30 µM (inactive) | > 30 µM (inactive) | > 30 µM (inactive) | 0.19 µM (active) | – | –
C[C@@H](Nc1cc(F)cc(F)c1)c1cc(C(=O)N(C)C)cc2c(=O)cc(N3CCOCC3)oc12 [AZD-8186] | > 30 µM (inactive) | > 30 µM (inactive) | > 30 µM (inactive) | > 30 µM (inactive) | – | > 30 µM (inactive) | > 30 µM (inactive) | > 30 µM (inactive) | > 30 µM (inactive) | > 30 µM (inactive) | > 30 µM (inactive) | > 30 µM (inactive) | > 30 µM (inactive) | > 30 µM (inactive) | > 30 µM (inactive)
CNC(=O)c1ccc(C)c(-n2c(C)cc(OCc3ccc(F)cc3F)c(Br)c2=O)c1 [PH-797804] | > 30 µM (inactive) | > 30 µM (inactive) | > 30 µM (inactive) | > 30 µM (inactive) | > 30 µM (inactive) | > 30 µM (inactive) | > 30 µM (inactive) | > 30 µM (inactive) | – | > 30 µM (inactive) | > 30 µM (inactive) | > 30 µM (inactive) | > 30 µM (inactive) | > 30 µM (inactive) | > 30 µM (inactive)
C[C@@H](c1ccc2nccn2c1)n1nnc2ncc(-c3cnn(C)c3)nc21 [SAVOLITINIB] | > 30 µM (inactive) | > 30 µM (inactive) | > 30 µM (inactive) | > 30 µM (inactive) | > 30 µM (inactive) | > 30 µM (inactive) | > 30 µM (inactive) | > 30 µM (inactive) | – | > 30 µM (inactive) | > 30 µM (inactive) | > 30 µM (inactive) | > 30 µM (inactive) | > 30 µM (inactive) | > 30 µM (inactive)
CC[C@H](Nc1ncnc2[nH]cnc12)c1nc2cccc(F)c2c(=O)n1-c1ccccc1 [IDELALISIB] | > 30 µM (inactive) | > 30 µM (inactive) | > 30 µM (inactive) | – | > 30 µM (inactive) | > 30 µM (inactive) | > 30 µM (inactive) | > 30 µM (inactive) | > 30 µM (inactive) | > 30 µM (inactive) | > 30 µM (inactive) | > 30 µM (inactive) | > 30 µM (inactive) | > 30 µM (inactive) | > 30 µM (inactive)
CNC(=O)c1cc(Oc2ccc(NC(=O)Nc3ccc(Cl)c(C(F)(F)F)c3)c(F)c2)ccn1 [REGORAFENIB] | > 30 µM (inactive) | > 30 µM (inactive) | > 30 µM (inactive) | – | > 30 µM (inactive) | > 30 µM (inactive) | > 30 µM (inactive) | > 30 µM (inactive) | 0.682 µM (active) | > 30 µM (inactive) | > 30 µM (inactive) | > 30 µM (inactive) | 0.358 µM (active) | > 30 µM (inactive) | > 30 µM (inactive)
CC[C@@H]1C(=O)N(C)c2cnc(Nc3ccc(C(=O)N[C@H]4CC[C@H](N5CCN(CC6CC6)CC5)CC4)cc3OC)nc2N1C(C)C [VOLASERTIB] | > 30 µM (inactive) | > 30 µM (inactive) | > 30 µM (inactive) | – | > 30 µM (inactive) | > 30 µM (inactive) | > 30 µM (inactive) | > 30 µM (inactive) | > 30 µM (inactive) | > 30 µM (inactive) | > 30 µM (inactive) | > 30 µM (inactive) | > 30 µM (inactive) | > 30 µM (inactive) | > 30 µM (inactive)
COc1cc2nccc(Oc3ccc(NC(=O)NC4CC4)c(Cl)c3)c2cc1C(N)=O [LENVATINIB] | > 30 µM (inactive) | > 30 µM (inactive) | > 30 µM (inactive) | > 30 µM (inactive) | > 30 µM (inactive) | > 30 µM (inactive) | – | > 30 µM (inactive) | 0.063 µM (active) | > 30 µM (inactive) | > 30 µM (inactive) | – | 0.046 µM (active) | > 30 µM (inactive) | –
COCCNCc1ccc(-c2cc3nccc(Oc4ccc(NC(=S)NC(=O)Cc5ccc(F)cc5)cc4F)c3s2)nc1 [GLESATINIB] | > 30 µM (inactive) | > 30 µM (inactive) | > 30 µM (inactive) | > 30 µM (inactive) | > 30 µM (inactive) | > 30 µM (inactive) | > 30 µM (inactive) | > 30 µM (inactive) | > 30 µM (inactive) | > 30 µM (inactive) | > 30 µM (inactive) | > 30 µM (inactive) | – | 1.1 µM (active) | > 30 µM (inactive)
N[C@@H]1CCCN(c2c(/C=C3\SC(=O)NC3=O)cccc2-c2ccccc2)C1 | > 30 µM (inactive) | > 30 µM (inactive) | > 30 µM (inactive) | > 30 µM (inactive) | > 30 µM (inactive) | > 30 µM (inactive) | > 30 µM (inactive) | – | > 30 µM (inactive) | > 30 µM (inactive) | > 30 µM (inactive) | > 30 µM (inactive) | > 30 µM (inactive) | > 30 µM (inactive) | > 30 µM (inactive)
COc1cc(CCc2cc(NC(=O)c3ccc(N4C[C@@H](C)N[C@@H](C)C4)cc3)n[nH]2)cc(OC)c1 [AZD-4547] | > 30 µM (inactive) | > 30 µM (inactive) | > 30 µM (inactive) | > 30 µM (inactive) | > 30 µM (inactive) | > 30 µM (inactive) | > 30 µM (inactive) | > 30 µM (inactive) | > 30 µM (inactive) | > 30 µM (inactive) | > 30 µM (inactive) | 0.049 µM (active) | – | > 30 µM (inactive) | 0.006 µM (active)

Source: ChEMBL document CHEMBL3991601, “The target landscape of clinical kinase drugs” (Science, 2017)
